Assay [1] is filed under the species Homo sapiens. Description: Selectivity ratio Ki for kappa-opioid receptor (unknown origin) to Ki for delta-opioid receptor (unknown origin).
The species named for assay [2] is Homo sapiens. Briefly: Selectivity ratio Ki for mu-opioid receptor (unknown origin) to Ki for delta-opioid receptor (unknown origin).
Assay [3] concerns the target T1, Kappa-type opioid receptor (Homo sapiens, UniProt P41145). Description: Displacement of [3H]U-69593 from kappa-opioid receptor (unknown origin).
Assay [4] concerns the target T2, Mu-type opioid receptor (Homo sapiens, UniProt P35372). Description: Displacement of [3H]DAMGO from mu-opioid receptor (unknown origin). (In general: Displacement assays read how much labelled ligand stays bound in the presence of the test substance.)
Assay [5] deals with T3, Delta-type opioid receptor (Homo sapiens, UniProt P41143). Description: Displacement of [3H]DPDPE from delta-opioid receptor (unknown origin).
Assay [6] addresses T3, Delta-type opioid receptor. Briefly: Agonist activity at delta-opioid receptor (unknown origin) by [35S]GTPgammaS binding assay. It is filed as functional. (GTPγS resists hydrolysis and so accumulates on activated G proteins.)
In assay [7] the target is T2, Mu-type opioid receptor. Briefly: Agonist activity at mu-opioid receptor (unknown origin) by [35S]GTPgammaS binding assay. The assay is classed as functional.
Assay [8] has as its target T1, Kappa-type opioid receptor. Briefly: Agonist activity at kappa-opioid receptor (unknown origin) by [35S]GTPgammaS binding assay.

By Ki is commonly meant a measure of affinity in units of concentration, obtained from inhibition or displacement. Lower therefore signals a stronger hold on the target. One may read the EC50 as the concentration at which the effect is half-maximal. What is called Emax is the greatest response seen or fitted, relative to the assay's reference.

T3 sequence (P41143 whole entry): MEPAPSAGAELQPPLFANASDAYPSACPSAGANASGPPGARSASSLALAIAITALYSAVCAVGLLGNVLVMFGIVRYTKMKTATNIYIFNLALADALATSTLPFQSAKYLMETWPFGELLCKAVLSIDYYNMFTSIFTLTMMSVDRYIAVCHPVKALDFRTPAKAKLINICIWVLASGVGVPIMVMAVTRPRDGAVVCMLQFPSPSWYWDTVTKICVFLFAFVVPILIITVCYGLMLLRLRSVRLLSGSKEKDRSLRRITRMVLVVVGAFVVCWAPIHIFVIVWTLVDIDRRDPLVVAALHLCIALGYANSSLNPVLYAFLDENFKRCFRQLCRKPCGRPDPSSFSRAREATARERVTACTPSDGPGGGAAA
T1 sequence (P41145 whole entry): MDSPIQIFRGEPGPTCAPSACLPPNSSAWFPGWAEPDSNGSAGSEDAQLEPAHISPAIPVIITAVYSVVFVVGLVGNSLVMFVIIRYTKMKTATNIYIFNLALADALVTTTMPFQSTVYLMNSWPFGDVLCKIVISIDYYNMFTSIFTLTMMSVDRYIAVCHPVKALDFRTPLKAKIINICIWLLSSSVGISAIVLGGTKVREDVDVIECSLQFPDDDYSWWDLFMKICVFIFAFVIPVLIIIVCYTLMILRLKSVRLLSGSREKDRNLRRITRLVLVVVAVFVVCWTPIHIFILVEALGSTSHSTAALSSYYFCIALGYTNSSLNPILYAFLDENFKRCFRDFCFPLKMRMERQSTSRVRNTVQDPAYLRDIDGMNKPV
T2 sequence (P35372 whole entry): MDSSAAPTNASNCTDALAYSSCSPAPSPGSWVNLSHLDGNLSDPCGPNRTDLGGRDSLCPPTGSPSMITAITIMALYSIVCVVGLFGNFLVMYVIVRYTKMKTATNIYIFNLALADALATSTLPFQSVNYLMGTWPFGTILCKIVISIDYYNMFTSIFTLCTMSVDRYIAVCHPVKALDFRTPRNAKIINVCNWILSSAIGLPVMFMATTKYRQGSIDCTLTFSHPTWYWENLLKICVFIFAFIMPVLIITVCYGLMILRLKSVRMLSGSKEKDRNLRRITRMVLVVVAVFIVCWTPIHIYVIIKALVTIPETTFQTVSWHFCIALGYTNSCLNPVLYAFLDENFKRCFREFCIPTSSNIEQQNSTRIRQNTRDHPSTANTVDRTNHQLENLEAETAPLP

For the compound `Oc1ccc2c(c1)[C@]13CCN(Cc4ccccc4)C[C@@]1(C2)Cc1cc2ccccc2nc1C3`, the values for the Ratio Ki in the assay listed under Homo sapiens [1] and in the assay filed under Homo sapiens [2] were 18.8 and 2.42, respectively. The Ki turned out to be 594 nM in assay [3], 76.3 nM on Mu-type opioid receptor [4] and 31.6 nM in assay [5].
The corresponding values for `CN1CC[C@]23Cc4nc5ccccc5cc4C[C@]2(Cc2ccc(O)cc23)C1` are 104, 1.63, 195 nM, 3.06 nM and 1.88 nM.
As for `O=C1CC[C@@]23Cc4ccc(O)cc4[C@@]2(CCN(CC2CC2)C3)C1`, the Ki stood at 17.4 nM in assay [3], 58.2 nM at Mu-type opioid receptor [4] and 448 nM in assay [5].
Regarding `Oc1ccc2c(c1)[C@]13CCN(CC4(O)CC4)C[C@@]1(C2)Cc1cc2ccccc2nc1C3`, the Ratio Ki in the assay filed under Homo sapiens [1] amounted to 801; in the assay listed under Homo sapiens [2] it was 378. The Ki in assay [3] came out at 879 nM; at Mu-type opioid receptor [4], 415 nM; in assay [5], 1.1 nM.
For the compound `Oc1ccc2c(c1)[C@]13CCN(CC4CC4)C[C@@]1(C2)Cc1cc2ccccc2nc1C3`, the Ratio Ki in the assay filed under Homo sapiens [1] stood at 89.9; in the assay filed under Homo sapiens [2] it was 119. Besides, the EC50 in assay [6] was 2.5 nM; at Mu-type opioid receptor [7] it was 197 nM; in assay [8] it was 836 nM. The Emax came out at 88% in assay [6] and 56% on Mu-type opioid receptor [7]. Moreover, the Ki in assay [3] was 84.6 nM; at Mu-type opioid receptor [4], 112 nM; in assay [5], 0.941 nM.
